{"source": "patent US12180138B2", "about": "“Lipid nanoparticle compositions for delivering circular polynucleotides” (Orna Therapeutics, Inc., priority 2021, dated 2024)", "key": {"[1]": {"test_system": "splenic immune cells (T cells, myeloid cells, B cells, NK cells)", "assay": "mOX40L expression in splenic immune cells after IV LNP-circular RNA (flow cytometry)", "type": "in vivo, C57BL/6 mice", "conditions": "1 mg/kg intravenously, 24 hours; IL:P 5.7; vs Lipid 15 of Table 10f", "procedure": "The ionizable lipid:helper lipid:cholesterol:PEG-lipid molar ratio of these LNPs was 50:10:38.5:1.5. Dialysis of the LNPs were performed using PBS. C57BL/6 female mice (6-8 weeks, n=4) were dosed at either LNP comprising Lipid 1 of Table 10e or the Lipid 15 of Table 10f at 1 mg/kg intravenously. At 24 hours, the spleen from the mice were collected for flow cytometry analysis. mOX40L transfection of Lipid 1 of Table 10e and Lipid 15 of Table 10f were compared in T cells, myeloid cells, B cells, and NK cells."}, "[2]": {"test_system": "splenic T cells", "assay": "mOX40L expression in splenic T cells after IV LNP-circular RNA", "type": "in vivo, C57BL/6 mice", "conditions": "1 mg/kg intravenously, 24 hours", "procedure": "The ionizable lipid:helper lipid: cholesterol:PEG-lipid molar ratio of these LNPs was 50:10:38.5:1.5. C57BL/6 female mice (6-8 weeks, n=4) were dosed at 1 mg/kg intravenously. At 24 hours, the spleen from the mice were collected for flow cytometry analysis, tested for weight loss and measured for serum alanine aminotransferase (ALT) after blood collection. mOX40L expression was measured in splenic T cells."}}, "data": [{"smiles": "CCCCCCCCCCCCC(O)CN(CCCO)CCCCCCCC(=O)OC(CCCCCCCC)CCCCCCCC", "note": "(centres unmarked) [Lipid 1 of Table 10e, heptadecan-9-yl 8-((3-hydroxypropyl)(2-hydroxytetradecyl)amino)octanoate]", "values": [{"measurement": "mOX40L transfection in splenic immune cells", "setting": "[1]", "value": "comparable or higher levels of mOX40L transfection"}, {"measurement": "mOX40L expression in splenic T cells", "setting": "[2]", "value": "expression of mOX40L in splenic T cells"}]}]}
